ChEMBL document CHEMBL5370643, “Discovery of MK-1468: A Potent, Kinome-Selective, Brain-Penetrant Amidoisoquinoline LRRK2 Inhibitor for the Potential Treatment of Parkinson's Disease” (J Med Chem, 2023)
pIC50: −log10 of the molar value.

How the values were obtained:
[1] = Cardiotoxicity in guinea pig assessed as increase in PR interval at 20 to 50 mg/kg, iv administered continuously for 20 min by ECG analysis; format: toxicity, organism-based, Cavia porcellus; conditions: in vivo, dose 20-50 mg/kg
[2] = Toxicity in Wistar-Han rat assessed as tolerance at 50 to 300 mg/kg, qd; format: organism-based; conditions: in vivo, dose 50-300 mg/kg
mouse BCRP = experiment: Efflux ratio of apparent permeability across basolateral to apical over apical to basolateral side in MDCK-II cells transfected with mouse BCRP incubated for 3 hrs by LC-MS/MS analysis; conditions: dog
[3] = MRT in Beagle dog at […], iv measured after 24 hrs by LC-MS/MS analysis; format: ADME, organism-based, Canis lupus familiaris; conditions: in vivo, dose 0.25 mg/kg
Nav1.5 = Nav1.5 (Homo sapiens, UniProt Q14524); experiment: (§1) Inhibition of human Nav1.5 expressed in HEK293 cells by QPatch voltage clamp assay; format: cell-based; conditions: human, HEK293 cells expressing human Nav1.5
[4] = target: Sodium channel protein type 5 subunit alpha (Homo sapiens, UniProt Q14524); experiment: as §1; format: cell-based
[5] = Oral bioavailability in Beagle dog at 1 mg/kg measured after 24 hrs by LC-MS/MS analysis; format: ADME, organism-based, Canis lupus familiaris; conditions: in vivo
[6] = Total clearance in Beagle dog at […], iv measured after 24 hrs by LC-MS/MS analysis; format: ADME, organism-based, Canis lupus familiaris; conditions: in vivo, dose 0.25 mg/kg
[7] = Oral bioavailability in rhesus monkey at 2 mg/kg measured after 24 hrs by LC-MS/MS analysis; format: ADME, organism-based, Macaca mulatta; conditions: in vivo
[8] = MRT in rhesus monkey at 1 mg/kg, iv measured after 24 hrs by LC-MS/MS analysis; format: ADME, organism-based, Macaca mulatta; conditions: in vivo
[9] = Drug metabolism in dog assessed as amide hydrolysis mediated metabolite formation by MetID analysis; format: ADME, Canis lupus familiaris
rat Mdrl1 P-gp = experiment: Efflux ratio of apparent permeability across basolateral to apical over apical to basolateral side in MDCK cells transfected with rat Mdrl1 P-gp incubated for 3 hrs by LC-MS/MS analysis; conditions: dog, MDCK-MDR1
[10] = AUC in Wistar-Han rat at 300 mg/kg by LC-MS/MS analysis; format: ADME, organism-based; design: dose 300 mg/kg; conditions: in vivo
[11] = Total clearance in Wistar-Han rat at 2 mg/kg, iv measured after 24 hrs by LC-MS/MS analysis; format: ADME, organism-based; conditions: in vivo
[12] = target: KCNQ1/KCNE1 (IKs, Kv7.1/MinK) (Homo sapiens, UniProt P15382+P51787); experiment: Inhibition of human KCNQ1/KCNE1 expressed in HEK293 cells at 30 uM by QPatch voltage clamp assay relative to control; format: cell-based; conditions: HEK293 cells expressing human KCNQ1/KCNE1
[13] = target: Leucine-rich repeat serine/threonine-protein kinase 2 (Homo sapiens) (UniProt Q5S007); experiment: Inhibition of LRRK2 in human PBMC using LRRKtide peptide as substrate assessed as Ser935 dephosphorylation preincubated with compound for 15 mins followed by substrate addition and measured after 90 mins in presence of ATP by TR-FRET assay; format: cell-based; conditions: time 105.0 min
Leucine-rich repeat serine/threonine-protein kinase 2 (Homo sapiens), sequence (Q5S007 whole entry): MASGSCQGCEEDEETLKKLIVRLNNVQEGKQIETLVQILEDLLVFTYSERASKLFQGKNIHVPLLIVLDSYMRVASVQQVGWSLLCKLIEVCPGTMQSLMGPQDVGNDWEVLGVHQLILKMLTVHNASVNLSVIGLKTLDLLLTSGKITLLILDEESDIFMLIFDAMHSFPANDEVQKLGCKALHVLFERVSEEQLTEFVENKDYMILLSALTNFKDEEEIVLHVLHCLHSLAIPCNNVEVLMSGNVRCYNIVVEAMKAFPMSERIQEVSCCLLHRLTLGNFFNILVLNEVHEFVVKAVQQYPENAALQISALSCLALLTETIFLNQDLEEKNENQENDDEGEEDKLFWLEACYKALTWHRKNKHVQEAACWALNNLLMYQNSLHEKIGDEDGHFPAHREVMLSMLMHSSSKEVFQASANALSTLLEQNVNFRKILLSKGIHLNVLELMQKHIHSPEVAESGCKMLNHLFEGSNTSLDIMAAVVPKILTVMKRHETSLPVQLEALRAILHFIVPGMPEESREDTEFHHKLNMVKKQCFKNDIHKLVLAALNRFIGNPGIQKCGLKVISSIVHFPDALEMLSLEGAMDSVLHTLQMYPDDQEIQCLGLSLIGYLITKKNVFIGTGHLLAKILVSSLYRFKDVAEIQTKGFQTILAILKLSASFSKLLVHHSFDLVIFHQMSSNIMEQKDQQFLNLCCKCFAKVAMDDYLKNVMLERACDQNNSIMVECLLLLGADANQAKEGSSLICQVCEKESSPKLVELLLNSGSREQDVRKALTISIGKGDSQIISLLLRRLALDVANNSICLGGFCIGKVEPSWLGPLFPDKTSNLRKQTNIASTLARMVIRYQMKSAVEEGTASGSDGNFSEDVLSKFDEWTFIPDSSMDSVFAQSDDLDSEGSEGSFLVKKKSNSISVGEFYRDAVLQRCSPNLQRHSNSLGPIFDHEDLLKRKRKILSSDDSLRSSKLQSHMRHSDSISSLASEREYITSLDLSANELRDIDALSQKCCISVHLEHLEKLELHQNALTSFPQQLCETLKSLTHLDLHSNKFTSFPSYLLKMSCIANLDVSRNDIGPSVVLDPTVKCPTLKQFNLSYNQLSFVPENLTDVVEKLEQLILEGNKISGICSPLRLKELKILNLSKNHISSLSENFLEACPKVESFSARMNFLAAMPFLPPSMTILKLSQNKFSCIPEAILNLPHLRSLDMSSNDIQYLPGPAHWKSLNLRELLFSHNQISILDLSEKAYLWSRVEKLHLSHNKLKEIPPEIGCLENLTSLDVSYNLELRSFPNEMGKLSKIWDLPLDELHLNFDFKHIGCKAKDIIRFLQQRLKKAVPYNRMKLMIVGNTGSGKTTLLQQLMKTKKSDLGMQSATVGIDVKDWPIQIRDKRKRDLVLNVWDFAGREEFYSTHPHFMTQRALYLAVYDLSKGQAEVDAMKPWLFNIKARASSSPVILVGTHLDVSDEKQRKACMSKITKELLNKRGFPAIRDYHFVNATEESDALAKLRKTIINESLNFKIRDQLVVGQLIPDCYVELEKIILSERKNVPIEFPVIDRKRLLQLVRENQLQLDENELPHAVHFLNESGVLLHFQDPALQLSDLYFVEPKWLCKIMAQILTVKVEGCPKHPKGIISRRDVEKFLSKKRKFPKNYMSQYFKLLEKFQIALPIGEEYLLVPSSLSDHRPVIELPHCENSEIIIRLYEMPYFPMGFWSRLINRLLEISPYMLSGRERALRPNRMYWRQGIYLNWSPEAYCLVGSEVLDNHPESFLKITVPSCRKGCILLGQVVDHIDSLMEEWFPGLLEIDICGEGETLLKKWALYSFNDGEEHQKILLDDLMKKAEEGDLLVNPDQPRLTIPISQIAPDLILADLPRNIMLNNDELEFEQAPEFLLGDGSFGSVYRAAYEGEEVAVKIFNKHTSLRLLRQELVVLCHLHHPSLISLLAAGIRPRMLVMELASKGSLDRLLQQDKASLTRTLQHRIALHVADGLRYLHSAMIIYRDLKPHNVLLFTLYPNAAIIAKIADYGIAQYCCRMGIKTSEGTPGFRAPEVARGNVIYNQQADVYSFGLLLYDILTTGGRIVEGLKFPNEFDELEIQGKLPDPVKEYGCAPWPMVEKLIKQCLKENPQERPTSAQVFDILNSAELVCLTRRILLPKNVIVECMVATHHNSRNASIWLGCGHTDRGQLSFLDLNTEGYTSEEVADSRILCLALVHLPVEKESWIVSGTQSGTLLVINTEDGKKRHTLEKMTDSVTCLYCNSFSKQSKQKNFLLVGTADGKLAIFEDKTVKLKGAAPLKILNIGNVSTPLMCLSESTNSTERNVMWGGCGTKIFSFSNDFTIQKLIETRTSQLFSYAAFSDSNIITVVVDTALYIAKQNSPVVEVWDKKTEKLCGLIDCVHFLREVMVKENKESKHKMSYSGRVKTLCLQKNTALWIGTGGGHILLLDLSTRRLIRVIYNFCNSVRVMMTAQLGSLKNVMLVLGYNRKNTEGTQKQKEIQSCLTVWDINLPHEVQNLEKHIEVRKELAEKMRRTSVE

[14] = Cardiotoxicity in guinea pig assessed as increase in QRS interval at 20 to 50 mg/kg, iv administered continuously for 20 min by ECG analysis; format: toxicity, organism-based, Cavia porcellus; conditions: in vivo, dose 20-50 mg/kg
rat Mdr1a P-gp = experiment: Apparent permeability across apical to basolateral side in LLC-PK1 cells transfected with rat Mdr1a P-gp incubated for 3 hrs by LC-MS/MS analysis; conditions: pig
[15] = AUC in Wistar-Han rat at 50 mg/kg by LC-MS/MS analysis; format: ADME, organism-based; design: dose 50 mg/kg; conditions: in vivo
[16] = Lipophilicity, logD of compound at pH 7 by HT-HPLC/DAD analysis; format: physicochemical; conditions: buffer
[17] = Intrinsic clearance in rhesus monkey at 1 mg/kg, iv measured after 24 hrs by LC-MS/MS analysis; format: ADME, organism-based, Macaca mulatta; conditions: in vivo
[18] = target: Leucine-rich repeat serine/threonine-protein kinase 2 (Homo sapiens, UniProt Q5S007, G2019S); experiment: Inhibition of recombinant N-terminal GST-fused LRRK2 […] mutant (970 to 2527 residues) (unknown origin) using LRRKtide peptide as substrate assessed as inhibition of substrate phosphorylation preincubated with compound for 15 mins followed by substrate addition and measured after 90 mins in presence of ATP by TR-FRET assay
Leucine-rich repeat serine/threonine-protein kinase 2, sequence (Q5S007 whole entry G2019S, the tested form may be a part): as the sequence (Q5S007 whole entry) above, with G2019S counted along it

[19] = Total clearance in rhesus monkey at 1 mg/kg, iv measured after 24 hrs by LC-MS/MS analysis; format: ADME, organism-based, Macaca mulatta; conditions: in vivo
[20] = target: Voltage-dependent L-type calcium channel subunit alpha-1C (Homo sapiens, UniProt Q13936); experiment: Inhibition of human Cav1.2
[21] = Oral bioavailability in Wistar-Han rat at 5 mg/kg measured after 24 hrs by LC-MS/MS analysis; format: ADME, organism-based; conditions: in vivo
[22] = target: MAP/microtubule affinity-regulating kinase 3 (Homo sapiens, UniProt P27448); experiment: Inhibition of recombinant human full length MARK3 expressed in insect cells using CHKtide as substrate preincubated with compound for 15 mins followed by substrate addition and measured after 15 mins in the presence of ATP by scintillation based radiometric LeadHunter assay
MAP/microtubule affinity-regulating kinase 3, sequence (P27448 whole entry): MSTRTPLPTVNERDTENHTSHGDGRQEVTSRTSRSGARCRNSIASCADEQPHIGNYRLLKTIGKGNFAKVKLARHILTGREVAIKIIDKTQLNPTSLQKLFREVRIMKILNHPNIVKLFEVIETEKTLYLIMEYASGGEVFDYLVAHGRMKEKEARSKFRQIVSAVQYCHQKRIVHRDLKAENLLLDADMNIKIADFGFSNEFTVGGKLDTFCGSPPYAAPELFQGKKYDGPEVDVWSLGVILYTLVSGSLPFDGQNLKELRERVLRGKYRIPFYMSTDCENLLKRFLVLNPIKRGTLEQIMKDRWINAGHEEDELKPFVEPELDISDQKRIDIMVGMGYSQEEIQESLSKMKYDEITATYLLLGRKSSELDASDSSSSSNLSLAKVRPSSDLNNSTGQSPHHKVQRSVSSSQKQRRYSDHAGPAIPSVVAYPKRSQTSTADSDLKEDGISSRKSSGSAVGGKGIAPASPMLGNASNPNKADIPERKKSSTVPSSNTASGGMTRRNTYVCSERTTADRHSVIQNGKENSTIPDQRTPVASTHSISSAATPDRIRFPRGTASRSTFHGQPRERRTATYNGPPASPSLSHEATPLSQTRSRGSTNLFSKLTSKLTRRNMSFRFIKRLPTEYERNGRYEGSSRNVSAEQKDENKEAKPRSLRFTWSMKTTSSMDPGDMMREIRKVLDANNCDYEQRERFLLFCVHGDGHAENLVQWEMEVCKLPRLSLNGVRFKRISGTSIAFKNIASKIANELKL

[23] = Cardiotoxicity in guinea pig assessed as increase in QTc interval at 20 to 50 mg/kg, iv administered continuously for 20 min by ECG analysis; format: toxicity, organism-based, Cavia porcellus; conditions: in vivo, dose 20-50 mg/kg
[24] = Intrinsic clearance in Beagle dog at […], iv measured after 24 hrs by LC-MS/MS analysis; format: ADME, organism-based, Canis lupus familiaris; conditions: in vivo, dose 0.25 mg/kg
[25] = Unbound brain-to-plasma concentration ratio in iv dosed Wistar-Han rat administered as cassette dose by LC-MS/MS analysis; format: ADME, organism-based; conditions: read-out: K(p,uu,brain)
[26] = Intrinsic clearance in Wistar-Han rat at 2 mg/kg, iv measured after 24 hrs by LC-MS/MS analysis; format: ADME, organism-based; conditions: in vivo
[27] = target: Voltage-gated inwardly rectifying potassium channel KCNH2 (Homo sapiens, UniProt Q12809); experiment: (§2) Inhibition of hERG expressed in CHO cells by QPatch voltage clamp assay
Voltage-gated inwardly rectifying potassium channel KCNH2, sequence (Q12809 whole entry): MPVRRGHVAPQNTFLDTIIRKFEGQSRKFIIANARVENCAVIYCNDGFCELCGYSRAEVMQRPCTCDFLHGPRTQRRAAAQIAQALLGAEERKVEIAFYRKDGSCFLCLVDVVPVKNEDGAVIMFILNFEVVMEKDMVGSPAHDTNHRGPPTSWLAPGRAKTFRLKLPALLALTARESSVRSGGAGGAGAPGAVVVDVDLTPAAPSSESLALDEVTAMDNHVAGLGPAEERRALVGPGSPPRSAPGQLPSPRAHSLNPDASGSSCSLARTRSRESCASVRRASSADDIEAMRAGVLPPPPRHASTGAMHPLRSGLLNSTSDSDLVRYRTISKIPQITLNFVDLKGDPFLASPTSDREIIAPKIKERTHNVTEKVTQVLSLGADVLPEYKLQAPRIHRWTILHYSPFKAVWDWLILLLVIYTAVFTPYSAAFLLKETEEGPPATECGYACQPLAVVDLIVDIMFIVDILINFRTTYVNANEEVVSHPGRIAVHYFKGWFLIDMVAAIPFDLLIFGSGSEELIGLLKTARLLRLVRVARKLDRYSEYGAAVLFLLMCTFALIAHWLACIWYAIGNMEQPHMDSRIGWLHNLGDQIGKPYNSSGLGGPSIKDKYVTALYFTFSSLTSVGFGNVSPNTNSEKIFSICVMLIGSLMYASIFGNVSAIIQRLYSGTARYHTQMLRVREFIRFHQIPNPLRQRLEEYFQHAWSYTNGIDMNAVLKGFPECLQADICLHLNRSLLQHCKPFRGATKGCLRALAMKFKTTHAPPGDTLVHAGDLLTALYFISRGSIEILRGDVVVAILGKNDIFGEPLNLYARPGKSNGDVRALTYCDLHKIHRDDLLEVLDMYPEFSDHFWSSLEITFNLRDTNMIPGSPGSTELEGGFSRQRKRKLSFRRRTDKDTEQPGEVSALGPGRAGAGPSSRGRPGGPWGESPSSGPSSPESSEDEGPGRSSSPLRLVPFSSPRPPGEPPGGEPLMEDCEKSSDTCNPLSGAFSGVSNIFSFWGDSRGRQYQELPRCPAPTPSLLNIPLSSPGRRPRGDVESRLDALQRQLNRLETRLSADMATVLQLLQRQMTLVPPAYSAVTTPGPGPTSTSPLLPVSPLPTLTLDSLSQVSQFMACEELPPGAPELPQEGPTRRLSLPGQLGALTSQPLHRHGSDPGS

hERG = hERG (Homo sapiens, UniProt Q12809); experiment: as §2; conditions: human, CHO cells expressing hERG
[28] = MRT in Wistar-Han rat at 2 mg/kg, iv measured after 24 hrs by LC-MS/MS analysis; format: ADME, organism-based; conditions: in vivo

Compound: C[C@@]1(N2CCC(c3cc4cc(NC(=O)C5CC56CC6)ncc4cc3Cl)CC2)COC[C@@H]1O (stereo partly drawn)
- Activity [1]: Toxic
- Activity [2]: Non-Toxic
- efflux ratio at 3 h (mouse BCRP): 1.1
- MRT at 24 h [3]: 33 h
- IC20 (Nav1.5): 10 µM
- pIC50 [4]: 4.55
- bioavailability [5]: 81%
- clearance at 24 h [6]: 9 mL/min/kg
- bioavailability [7]: 21%
- MRT [8]: 10 h
- Drug metabolism [9]: Metabolite_Notdetected
- efflux ratio at 3 h (rat Mdrl1 P-gp): 1.5
- AUC [10]: 458 µM·h
- clearance [11]: 11 mL/min/kg
- inhibition at 30 µM [12]: 15%
- fIC50 [13]: 2.8 nM
- Activity [14]: Toxic
- Papp A→B at 3 h (rat Mdr1a P-gp): 30 ×10⁻⁶ cm/s
- AUC [15]: 111 µM·h
- logD [16]: 3
- CL [17]: 341 mL/min/kg
- pIC50 [18]: 8.52
- clearance [19]: 13 mL/min/kg
- inhibition (INH) [20]: Not Active
- bioavailability [21]: 100%
- pIC50 [22]: 7.54
- Activity [23]: Toxic
- CL [24]: 341 mL/min/kg
- Kp uu [25]: 0.6
- CL [26]: 271 mL/min/kg
- pIC50 [27]: 5.43
- IC20 (hERG): 1.3 µM
- MRT [28]: 9 h
